From BigSolDB 2.1

COC(=O)Nc1nc2ccc(S(=O)c3ccccc3)cc2[nH]1 (configuration not stated)
solubility (mole fraction)
Settings | 278.15 K | 283.15 K | 288.15 K | 293.15 K | 298.15 K | 303.15 K | 308.15 K | 313.15 K | 318.15 K | 323.15 K
in 2-ethoxyethanol | 0.00043 | 0.000518 | 0.000583 | 0.000682 | 0.00079 | 0.000908 | 0.00104 | 0.00118 | 0.00132 | 0.00144
in 2-methoxyethanol | 0.000687 | 0.000777 | 0.000887 | 0.00104 | 0.00118 | 0.00133 | 0.0015 | 0.00173 | 0.00191 | 0.00215
in 2-propoxyethanol | 0.000338 | 0.000402 | 0.000476 | 0.000554 | 0.000629 | 0.000727 | 0.000802 | 0.0009 | 0.00103 | 0.00117
in DMAc | 0.00381 | 0.00471 | 0.00576 | 0.00659 | 0.00821 | 0.00976 | 0.0112 | 0.0125 | 0.0147 | 0.017
in DMF | 0.00284 | 0.00329 | 0.00363 | 0.00408 | 0.00454 | 0.00502 | 0.00576 | 0.00632 | 0.00718 | 0.00796
in DMSO | – | – | – | 0.00925 | 0.0109 | 0.012 | 0.0138 | 0.0157 | 0.0175 | 0.0194
in diglyme | 0.00015 | 0.000174 | 0.000203 | 0.000241 | 0.00028 | 0.000321 | 0.000362 | 0.000406 | 0.000454 | 0.000502
in methanol | 8.35e-05 | 9.72e-05 | 0.00012 | 0.000148 | 0.00017 | 0.000201 | 0.000242 | 0.000287 | 0.000332 | 0.000389
